Laboratory results as given in patent US20230096766A1, “AMINO ACID HAVING FUNCTIONAL GROUP CAPABLE OF INTERMOLECULAR HYDROGEN BONDING, PEPTIDE COMPOUND CONTAINING SAME AND METHOD FOR PRODUCTION THEREOF” (Chugai Seiyaku Kabushiki Kaisha, priority 2018, published 2023).
*1 amine or outer side, *2 acyl side, *3 side chain or, on linkers, in order; H or OH if unused. Where a SMILES comes first, the peptide text is derived from it. Bridges are numbered along the chain shown (N, C = ends). [ ]: non-standard residue; d: D form. The star is where a group is joined. ξ: configuration not given here. NMeAbu(3,3-F2-piperidino) = CN[C@@H](CCN1CCCC(F)(F)C1)C(=O)O; Phe(3-CONHMe,4-OMe) = CNC(=O)c1cc(C[C@H](N)C(=O)O)ccc1OC; Glu(NHSO2Me) = CS(=O)(=O)NC(=O)CC[C@H](N)C(=O)O; Phe(4-COOH) = N[C@@H](Cc1ccc(C(=O)O)cc1)C(=O)O; NMePhe(3-Cl) = CN[C@@H](Cc1cccc(Cl)c1)C(=O)O; ξGln(SO2Me) = CS(=O)(=O)NC(=O)CCC(N)C(=O)O; Tyr(3-OMe) = COc1cc(C[C@H](N)C(=O)O)ccc1O; NMeW = CN[C@@H](Cc1c[nH]c2ccccc12)C(=O)O; NMehPhe = CN[C@@H](CCc1ccccc1)C(=O)O; Propyl(2,2-Me2,3-OH) = CC(C)(CO)C*; X6 = O=C([C@H](CCCCO)N[*:1])[*:2]; NMeF = CN[C@@H](Cc1ccccc1)C(=O)O; NMeGABA = CN(CCCC(=O)[*:2])[*:1]; NMeI = CC[C@H](C)[C@H](NC)C(=O)O; Butyl(3-Me,3-OH) = CC(C)(O)CC*; NMeL = CN[C@@H](CC(C)C)C(=O)O; Butyl(3S-OH) = C[C@H](O)CC*; NMeV = CN[C@H](C(=O)O)C(C)C; NMeAbu = CC[C@H](NC)C(=O)O; NMeA = CN[C@@H](C)C(=O)O; Piperidide = C1CCN(*)CC1; dAbu = CC[C@@H](N)C(=O)O; CH2CMe2OH = CC(C)(O)C*; NBuGly = CCCCNCC(=O)O; Isopentyl = CC(C)CC*; NPrGly = CCCNCC(=O)O; Ethyl(2-OH) = OCC*; ξS = NC(CO)C(=O)O; N(OH)Me = CN(O)*; Sar = CNCC(=O)O; tBu = CC(C)(C)*

experiment: in vitro; settings: human, Caco-2, Caco-2

| Structure (SMILES) | Papp [nm/s] |
| --- | --- |
| CC(C)CCOC[C@@H]1NC(=O)[C@H](CCN2CCCC(F)(F)C2)N(C)C(=O)[C@H](Cc2ccccc2)N(C)C(=O)CN(C)C(=O)[C@H]([C@@H](C)O)NC(=O)[C@H](CC(C)C)N(C)C(=O)[C@H](CC(C)C)NC(=O)[C@H](Cc2ccccc2)N(C)C(=O)CN(C)C(=O)C[C@@H](C(=O)N2CCCCC2)NC(=O)[C@H](CC(C)C)N(C)C1=O [pd393] ([Sar][NMeF]L[NMeL]T[Sar][NMeF][NMeAbu(3,3-F2-piperidino)]S(Isopentyl)[NMeL]D-Piperidide; lactam N-11) | 28 |
| CCCCN1CC(=O)N(C)[C@@H](C(C)C)C(=O)N[C@H](C(=O)N2CCCCC2)CC(=O)N(C)[C@@H](CC(C)C)C(=O)NC(CCC(=O)NS(C)(=O)=O)C(=O)N(C)[C@@H](CC(C)C)C(=O)N(C)[C@@H](Cc2ccccc2)C(=O)N[C@@H](CC(C)C)C(=O)N(C)[C@@H](Cc2ccccc2)C(=O)N(C)[C@@H](CC(C)C)C(=O)N[C@@H]([C@@H](C)O)C1=O (stereo partly drawn) [pd62] ([NMeL][ξGln(SO2Me)][NMeL][NMeF]L[NMeF][NMeL]T[NBuGly][NMeV]D-Piperidide; lactam N-11) | < 1.3 |
| CCCCN1CC(=O)N(C)[C@@H](CC(C)C)C(=O)N[C@@H](CC(C)C)C(=O)N(C)[C@@H](Cc2ccccc2)C(=O)N(C)[C@@H](C(C)C)C(=O)N[C@H](C(=O)N2CCCCC2)CC(=O)N[C@H](CC(C)C)C(=O)N(C)[C@@H](Cc2cccc(Cl)c2)C(=O)N[C@@H](CCC(=O)NS(C)(=O)=O)C(=O)N(C)[C@@H](CC(C)C)C(=O)N[C@@H]([C@@H](C)O)C1=O [pd59] ([dL][NMePhe(3-Cl)][Glu(NHSO2Me)][NMeL]T[NBuGly][NMeL]L[NMeF][NMeV]D-Piperidide; lactam N-11) | < 0.088 |

same assay, conditions: human, Caco-2, Caco-2 (cm/sec)

| Structure (SMILES) | Papp [nm/s] |
| --- | --- |
| CC(C)C[C@@H]1NC(=O)[C@H](Cc2ccccc2)N(C)C(=O)[C@@H](C(C)C)NC(=O)C[C@@H](C(=O)N2CCCCC2)NC(=O)[C@H](CC(C)C)N(C)C(=O)[C@H](Cc2cccc(Cl)c2)N(C)C(=O)[C@H](COCCC(C)(C)O)NC(=O)[C@H](CC(C)C)N(C)C(=O)CN(C)C(=O)[C@H]([C@@H](C)O)NC(=O)[C@H](C(C)C)N(C)C1=O [AP52] ([dV][NMeF]L[NMeV]T[Sar][NMeL]S(Butyl(3-Me,3-OH))[NMePhe(3-Cl)][NMeL]D-Piperidide; lactam N-11) | 17 |
| CC(C)C[C@H]1C(=O)N[C@@H](C(C)C)C(=O)N(C)[C@@H](Cc2ccccc2)C(=O)N(C)[C@@H](Cc2cccc(Cl)c2)C(=O)NC(COCC[C@H](C)O)C(=O)N(C)[C@@H](CC(C)C)C(=O)N[C@@H]([C@@H](C)O)C(=O)N(C)[C@@H](CC(C)C)C(=O)N(C)[C@@H](CC(C)C)C(=O)N[C@H](C(=O)N2CCCCC2)CC(=O)N(C)CCCC(=O)N1C (stereo partly drawn) [AP102] ([NMeGABA][NMeL]V[NMeF][NMePhe(3-Cl)][ξS](Butyl(3S-OH))[NMeL]T[NMeL][NMeL]D-Piperidide; lactam N-11) | 4.3 |
| CCCCN1CC(=O)N(C)[C@@H](Cc2ccccc2)C(=O)N(C)[C@@H](CC(C)C)C(=O)N[C@@H](Cc2ccc(O)cc2)C(=O)N(C)[C@@H](CC(C)C)C(=O)N[C@H](C(=O)N2CCCCC2)CC(=O)N(C)CC(=O)N(C)[C@@H](CC(C)C)C(=O)N[C@@H]([C@@H](C)CC)C(=O)N(C)[C@@H](CC(C)C)C(=O)N[C@@H]([C@@H](C)O)C1=O [Compound F08] ([Sar][NMeL]I[NMeL]T[NBuGly][NMeF][NMeL]Y[NMeL]D-Piperidide; lactam N-11) | 0.5 |
| CCCCN1CC(=O)N(C)[C@@H](CC(C)C)C(=O)N[C@@H](COC(C)(C)C)C(=O)N(C)[C@@H](CC(C)C)C(=O)N(C)[C@@H](CC)C(=O)N[C@H](C(=O)N2CCCCC2)CC(=O)N[C@H](CC(C)C)C(=O)N(C)[C@@H](Cc2ccccc2)C(=O)N[C@@H](Cc2ccc(O)c(OC)c2)C(=O)N(C)[C@@H](CC(C)C)C(=O)N[C@@H]([C@@H](C)O)C1=O [Compound E02] ([dL][NMeF][Tyr(3-OMe)][NMeL]T[NBuGly][NMeL]S(tBu)[NMeL][NMeAbu]D-Piperidide; lactam N-11) | 3.1 |
| CC(C)C[C@H]1C(=O)N(C)[C@@H](Cc2c[nH]c3ccccc23)C(=O)N(C)[C@@H](Cc2ccccc2)C(=O)N[C@@H]([C@@H](C)O)C(=O)N(C)[C@@H](C)C(=O)N(C)[C@@H](CC(C)C)C(=O)N[C@H](C(=O)N2CCCCC2)CC(=O)N(C)[C@@H](C)C(=O)N(C)[C@@H](CC(C)C)C(=O)N(C)[C@@H](CC(C)C)C(=O)N[C@@H](C)C(=O)N1C [pd104] ([NMeA][NMeL][NMeL]A[NMeL][NMeW][NMeF]T[NMeA][NMeL]D-Piperidide; lactam N-11) | 0.25 |
| CCCCN1CC(=O)N(C)[C@@H](CC(C)C)C(=O)N[C@@H](COC(C)(C)C)C(=O)N(C)[C@@H](Cc2ccccc2)C(=O)N(C)[C@@H](CC(C)C)C(=O)N[C@H](C(=O)N2CCCCC2)CC(=O)N[C@H](C(C)C)C(=O)N(C)[C@@H](C(C)C)C(=O)N[C@@H](Cc2ccc(C(=O)N(C)O)cc2)C(=O)N(C)[C@@H](CC(C)C)C(=O)N[C@@H]([C@@H](C)O)C1=O [AP248] ([dV][NMeV][Phe(4-COOH)](N(OH)Me)[NMeL]T[NBuGly][NMeL]S(tBu)[NMeF][NMeL]D-Piperidide; lactam N-11) | 2.4 |
| CC(C)C[C@H]1C(=O)N[C@@H](C(C)C)C(=O)N(C)[C@@H](Cc2ccccc2)C(=O)N(C)[C@@H](Cc2ccccc2)C(=O)N[C@@H](COC(C)(C)C)C(=O)N(C)[C@@H](CC(C)C)C(=O)N[C@@H]([C@@H](C)O)C(=O)N(C)[C@@H](Cc2ccccc2)C(=O)N(C)[C@@H](CC(C)C)C(=O)N[C@H](C(=O)N2CCCCC2)CC(=O)N(C)CCCC(=O)N1C [pd216] ([NMeGABA][NMeL]V[NMeF][NMeF]S(tBu)[NMeL]T[NMeF][NMeL]D-Piperidide; lactam N-11) | 12 |
| CCCN1CC(=O)N(C)[C@@H](CC(C)C)C(=O)N[C@H](C(=O)N2CCCCC2)CC(=O)N(C)[C@@H](C)C(=O)N[C@@H](CCCCO)C(=O)N(C)[C@@H](CC(C)C)C(=O)N(C)[C@@H](Cc2cccc(Cl)c2)C(=O)N[C@@H](C(C)C)C(=O)N(C)[C@@H](CCc2ccccc2)C(=O)N(C)[C@@H](CC(C)C)C(=O)N[C@@H]([C@@H](C)O)C1=O [Compound B05] ([NMeA][X6][NMeL][NMePhe(3-Cl)]V[NMehPhe][NMeL]T[NPrGly][NMeL]D-Piperidide; lactam N-11) | 2.6 |
| CC[C@H](C)[C@@H]1NC(=O)[C@H](CC(C)C)N(C)C(=O)CCCN(C)C(=O)C[C@@H](C(=O)N2CCCCC2)NC(=O)[C@H](CC(C)C)N(C)C(=O)[C@H](CC(C)C)N(C)C(=O)[C@H]([C@@H](C)O)NC(=O)[C@H](CC(C)C)N(C)C(=O)[C@H](COCC(C)(C)O)NC(=O)[C@H](Cc2cccc(Cl)c2)N(C)C(=O)[C@H](Cc2ccccc2)N(C)C1=O [AP04] ([NMeGABA][NMeL]I[NMeF][NMePhe(3-Cl)]S(CH2CMe2OH)[NMeL]T[NMeL][NMeL]D-Piperidide; lactam N-11) | 5.3 |
| CCCN1CC(=O)N(C)[C@@H](CCc2ccccc2)C(=O)N(C)[C@@H](CC(C)C)C(=O)N[C@@H](COCCC(C)C)C(=O)N(C)[C@@H](CC(C)C)C(=O)N[C@H](C(=O)N2CCCCC2)CC(=O)N(C)CC(=O)N(C)[C@@H](Cc2cccc(Cl)c2)C(=O)N[C@@H](COCCO)C(=O)N(C)[C@@H](CC(C)C)C(=O)N[C@@H]([C@@H](C)O)C1=O [Compound A07] ([Sar][NMePhe(3-Cl)]S(Ethyl(2-OH))[NMeL]T[NPrGly][NMehPhe][NMeL]S(Isopentyl)[NMeL]D-Piperidide; lactam N-11) | 5.3 |
| CC(C)C[C@@H]1NC(=O)[C@H](Cc2cccc(Cl)c2)N(C)C(=O)[C@H](CC(C)C)N(C)C(=O)[C@H](COCCO)NC(=O)[C@H](C(C)C)N(C)C(=O)C[C@@H](C(=O)N2CCCCC2)NC(=O)[C@H](CC(C)C)N(C)C(=O)CN(C)C(=O)[C@H]([C@@H](C)O)NC(=O)[C@H](CC(C)C)N(C)C(=O)[C@H](CCc2ccccc2)N(C)C1=O [Compound A09] ([NMeV]S(Ethyl(2-OH))[NMeL][NMePhe(3-Cl)]L[NMehPhe][NMeL]T[Sar][NMeL]D-Piperidide; lactam N-11) | 7.2 |
| CC(C)C[C@H]1C(=O)N[C@@H](Cc2ccc(O)cc2)C(=O)N(C)[C@@H](CC(C)C)C(=O)N(C)[C@@H](Cc2ccccc2)C(=O)N[C@@H](COC(C)(C)C)C(=O)N(C)[C@@H](CC(C)C)C(=O)N[C@@H]([C@@H](C)O)C(=O)N(C)[C@@H](CC(C)C)C(=O)N(C)[C@@H](CC(C)C)C(=O)N[C@H](C(=O)N2CCCCC2)CC(=O)N(C)CCCC(=O)N1C [Compound F04] ([NMeGABA][NMeL]Y[NMeL][NMeF]S(tBu)[NMeL]T[NMeL][NMeL]D-Piperidide; lactam N-11) | 1.3 |
| CCCCN1CC(=O)N(C)[C@@H](CC(C)C)C(=O)N[C@@H](COC(C)(C)C)C(=O)N(C)[C@@H]([C@@H](C)CC)C(=O)N(C)[C@@H](CC(C)C)C(=O)N[C@H](C(=O)N2CCCCC2)CC(=O)N[C@H](C)C(=O)N(C)[C@@H](Cc2ccccc2)C(=O)N[C@@H](Cc2ccc(OC)c(C(=O)NC)c2)C(=O)N(C)[C@@H](CC(C)C)C(=O)N[C@@H]([C@@H](C)O)C1=O [AP37] ([dA][NMeF][Phe(3-CONHMe,4-OMe)][NMeL]T[NBuGly][NMeL]S(tBu)[NMeI][NMeL]D-Piperidide; lactam N-11) | 4 |
| CCCCN1CC(=O)N(C)[C@@H](CC(C)C)C(=O)N[C@@H](COC(C)(C)C)C(=O)N(C)[C@@H](Cc2ccccc2)C(=O)N(C)[C@@H](CC(C)C)C(=O)N[C@H](C(=O)N2CCCCC2)CC(=O)N[C@H](CC)C(=O)N(C)[C@@H](Cc2ccccc2)C(=O)N[C@@H](COCC(C)(C)CO)C(=O)N(C)[C@@H](CC(C)C)C(=O)N[C@@H]([C@@H](C)O)C1=O [AP117] ([dAbu][NMeF]S(Propyl(2,2-Me2,3-OH))[NMeL]T[NBuGly][NMeL]S(tBu)[NMeF][NMeL]D-Piperidide; lactam N-11) | 3.6 |

same assay, conditions: human, Caco-2, Caco-2 (cm/sec) Papp

| Structure (SMILES) | Papp [nm/s] |
| --- | --- |
| CC(C)C[C@@H]1NC(=O)[C@H](Cc2ccccc2)N(C)C(=O)[C@H](CC(C)C)N(C)C(=O)[C@H](Cc2ccccc2)NC(=O)[C@H](C)NC(=O)C[C@@H](C(=O)N2CCCCC2)NC(=O)[C@H](Cc2ccccc2)N(C)C(=O)CN(C)C(=O)[C@H](Cc2ccccc2)NC(=O)[C@H](CC(C)C)N(C)C(=O)[C@H]([C@@H](C)O)NC1=O [pd244] (AF[NMeL][NMeF]LT[NMeL]F[Sar][NMeF]D-Piperidide; lactam N-11) | 0.45 |
